Measurements: patent US20240158446A1, “CYCLIC COMPOUND HAVING SELECTIVE INHIBITORY ACTION ON KRAS OVER HRAS AND NRAS” (CHUGAI SEIYAKU KABUSHIKI KAISHA, priority 2021, published 2024)
Read-outs that look alike come from different tables or passages of the source. *1 amine or outer side, *2 acyl side, *3 side chain or, on linkers, in order; H or OH if unused. Where a SMILES comes first, the peptide text is derived from it. Bridges are numbered along the chain shown (N, C = ends). [ ]: non-standard residue; d: D form. The star is where a group is joined. hPhe(3,5-F2-4-CF3) = N[C@@H](CCc1cc(F)c(C(F)(F)F)c(F)c1)C(=O)O; hPhe(3-Cl-4-CF3) = N[C@@H](CCc1ccc(C(F)(F)F)c(Cl)c1)C(=O)O; NPrPhe(4-CF3) = CCCN[C@@H](Cc1ccc(C(F)(F)F)cc1)C(=O)O; NMeGly(cPent) = CN[C@H](C(=O)O)C1CCCC1; X44 = CC1(C)CN([*:1])[C@@H]1C(=O)[*:2]; αMeF = C[C@](N)(Cc1ccccc1)C(=O)O; NMeD = CN[C@@H](CC(=O)O)C(=O)O; NMeL = CN[C@@H](CC(C)C)C(=O)O; hPip = O=C(O)[C@@H]1CCCCCN1; Pip = O=C(O)[C@@H]1CCCCN1; Morpholide = C1CN(*)CCO1; Ac5c = NC1(C(=O)O)CCCC1; Aze = O=C(O)[C@@H]1CCN1; NEtG = CCNCC(=O)O; Sar = CNCC(=O)O

Tests used:
[1] = molecular target: GDP-bound NRAS wild-type protein (Homo sapiens, UniProt P01111); assay: Binding to NRAS by surface plasmon resonance (SPR), Single Cycle Kinetics; details: SPR; for NRAS/KRAS (ratio of KD value with respect to NRAS to KD value with respect to KRAS) / NRAS/KRAS (ratio of KD value for NRAS to KD value for KRAS): GDP-bound NRAS wild-type protein vs GDP-bound KRAS wild-type protein
[2] = test system: human lung cancer strain NCI-H441;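 further: cell proliferation inhibition after four days measured by CellTiter-Glo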
[3] = molecular target: GDP-bound HRAS wild-type protein (Homo sapiens, UniProt P01112); assay: Binding to HRAS by surface plasmon resonance (SPR), Single Cycle Kinetics; details: SPR; for HRAS/KRAS (ratio of KD value with respect to HRAS to KD value with respect to KRAS) / HRAS/KRAS (ratio of KD value for HRAS to KD value for KRAS): GDP-bound HRAS wild-type protein vs GDP-bound KRAS wild-type protein
GDP-bound HRAS wild-type protein, sequence (P01112 whole entry): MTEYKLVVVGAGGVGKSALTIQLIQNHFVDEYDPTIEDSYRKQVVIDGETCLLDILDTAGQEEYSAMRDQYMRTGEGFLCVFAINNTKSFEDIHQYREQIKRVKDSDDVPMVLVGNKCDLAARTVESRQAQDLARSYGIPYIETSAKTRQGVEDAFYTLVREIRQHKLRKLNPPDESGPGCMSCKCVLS

GDP-bound NRAS wild-type protein, sequence (P01111 whole entry): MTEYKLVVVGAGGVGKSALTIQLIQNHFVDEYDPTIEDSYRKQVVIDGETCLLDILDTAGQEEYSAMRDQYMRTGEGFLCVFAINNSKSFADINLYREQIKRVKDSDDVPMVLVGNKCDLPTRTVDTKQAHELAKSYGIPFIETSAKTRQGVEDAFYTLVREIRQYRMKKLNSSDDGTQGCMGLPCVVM

SMILES	IC50 [2]	NRAS/KRAS (ratio of KD value for NRAS to KD value for KRAS) [1]	HRAS/KRAS (ratio of KD value for HRAS to KD value for KRAS) [3]	also measured
CCCN1C(=O)CN(C)C(=O)[C@@H]2CCN2C(=O)[C@H]([C@@H](C)CC)NC(=O)[C@H](CC(C)C)N(C)C(=O)C[C@@H](C(=O)N(C)C)N(C)C(=O)[C@H](C2CCCC2)N(C)C(=O)C2(CCCC2)NC(=O)[C@@H]2CCCN2C(=O)[C@H](CCc2ccc(C(F)(F)F)c(Cl)c2)NC(=O)CN(C)C(=O)[C@@H]1Cc1ccc(C(F)(F)F)cc1 [PP0429] ([NMeL]I[Aze][Sar][NPrPhe(4-CF3)][Sar][hPhe(3-Cl-4-CF3)]P[Ac5c][NMeGly(cPent)][NMeD]-NMe2; lactam N-11)	12.4 nM			NRAS/KRAS (ratio of KD value with respect to NRAS to KD value with respect to KRAS) [1]: B (a compound having 3 or more and less than 10 is denoted as B); HRAS/KRAS (ratio of KD value with respect to HRAS to KD value with respect to KRAS) [3]: C (A compound having a KD ratio of 0.1 or more and less than 3 is denoted as C)
CCCO[C@@H]1C[C@H]2C(=O)NC3(CC(C)(C)C3)C(=O)N(C)[C@@H](C3CCCC3)C(=O)N(C)[C@H](C(=O)N(C)CC)CC(=O)N(C)[C@H]3CCCc4ccc(cc4)C[C@@H](C(=O)N(C)CC(=O)N[C@@H](CCc4ccc(C(F)(F)F)c(OC)c4)C(=O)N2C1)N1CC/C=C\C[C@@H](C1=O)N(C)C(=O)CN(C)C(=O)[C@H]([C@@H](C)CC)NC3=O [PP3083]		A (a compound having 10 or more and less than 20 is denoted as A)	A (a compound having 10 or more and less than 20 is denoted as A)	ratio of the KD value with respect to GDP-bound NRAS wild-type protein to the KD value with respect to KRAS ([1]; KD(NRAS)/KD(KRAS)): A (a compound having 10 or more and less than 20 is denoted as A); IC50 ([2]; read-out: NCI-H441 cell proliferation inhibitory activity, 50% proliferation inhibitory concentration (IC50 value), NCI-H441, four days, CellTiter-Glo): 2.5 nM; ratio of the KD value with respect to GDP-bound HRAS wild-type protein to the KD value with respect to KRAS ([3]; KD(HRAS)/KD(KRAS)): A (a compound having 10 or more and less than 20 is denoted as A)
CCCN1C(=O)CN(C)C(=O)[C@@H]2CCN2C(=O)[C@H]([C@@H](C)CC)NC(=O)[C@@H]2CCCCCN2C(=O)C[C@@H](C(=O)N2CCOCC2)N(C)C(=O)[C@H](C2CCCC2)N(C)C(=O)C2(CCCC2)NC(=O)[C@@H]2CCCN2C(=O)[C@H](CCc2ccc(C(F)(F)F)c(Cl)c2)NC(=O)CN(C)C(=O)[C@@H]1Cc1ccc(C(F)(F)F)cc1 [PP0302] ([hPip]I[Aze][Sar][NPrPhe(4-CF3)][Sar][hPhe(3-Cl-4-CF3)]P[Ac5c][NMeGly(cPent)][NMeD]-Morpholide; lactam N-11)	126 nM	B (a compound having 3 or more and less than 10 is denoted as B)	C (A compound having a KD ratio of 0.1 or more and less than 3 is denoted as C)	
CCO[C@@H]1C[C@H]2C(=O)NC3(CCC3)C(=O)N(C)[C@@H](C3CCCC3)C(=O)N(C)[C@H](C(=O)N3CCOCC3)CC(=O)N(C)[C@@H](Cc3cccnc3)C(=O)N[C@@H]([C@@H](C)CC)C(=O)N(C)CC(=O)N(C)[C@H]3CCCCN(C3=O)[C@@H](Cc3ccc(C(F)(F)F)cc3)C(=O)N(C)CC(=O)N[C@@H](CCc3cc(F)c(C(F)(F)F)c(F)c3)C(=O)N2C1 [PP0718]	42.3 nM			NRAS/KRAS (ratio of KD value with respect to NRAS to KD value with respect to KRAS) [1]: C (A compound having a KD ratio of 0.1 or more and less than 3 is denoted as C); HRAS/KRAS (ratio of KD value with respect to HRAS to KD value with respect to KRAS) [3]: B (a compound having 3 or more and less than 10 is denoted as B)
CCO[C@@H]1C[C@H]2C(=O)NC3(CCC3)C(=O)N(C)[C@@H](C3CCCC3)C(=O)N(C)[C@H](C(=O)N(CC)CC)CC(=O)N(C)[C@@H](CC(C)C)C(=O)N[C@@H]([C@@H](C)CC)C(=O)N(C)CC(=O)N(C)[C@H]3C/C=C\CCN(C3=O)[C@@H](Cc3ccc(C)cc3)C(=O)N(C)CC(=O)N[C@@H](CCc3ccc(C(F)(F)F)c(OC)c3)C(=O)N2C1 [PP1851]				NRAS/KRAS (KD ratio) ([1]; ratio of KD for GDP-bound NRAS wild-type protein to KD for KRAS): A (a compound having 10 or more and less than 20 is denoted as A); IC50 ([2]; read-out: NCI-H441 IC50, NCI-H441 cell proliferation, 4 days, CellTiter-Glo): 165 nM; HRAS/KRAS (KD ratio) ([3]; ratio of KD for GDP-bound HRAS wild-type protein to KD for KRAS): A (a compound having 10 or more and less than 20 is denoted as A)
CCO[C@@H]1C[C@H]2C(=O)NC3(CCC3)C(=O)N(C)[C@@H](C3CCCC3)C(=O)N(C)[C@H](C(=O)N(C)C)CC(=O)N(CC)[C@@H](CC(C)C)C(=O)N[C@@H]([C@@H](C)CC)C(=O)N(C)CC(=O)N(C)[C@H]3CC(C)=CCN(C3=O)[C@@H](Cc3ccc(C(F)(F)F)cc3)C(=O)N(C)CC(=O)N[C@@H](CCc3cc(F)c(C(F)(F)F)c(F)c3)C(=O)N2C1 [PP1037]	296 nM	C (A compound having a KD ratio of 0.1 or more and less than 3 is denoted as C)	C (A compound having a KD ratio of 0.1 or more and less than 3 is denoted as C)	
CCCN1C(=O)CN(C)C(=O)[C@@H]2CCN2C(=O)[C@H]([C@@H](C)CC)NC(=O)[C@H](CC(C)C)N(C)C(=O)C[C@@H](C(=O)N2CCOCC2)N(C)C(=O)[C@H](C2CCCC2)N(C)C(=O)C2(CCCC2)NC(=O)[C@@H]2CCCN2C(=O)[C@H](CCc2ccc(C(F)(F)F)c(Cl)c2)NC(=O)CN(C)C(=O)[C@@H]1Cc1ccc(C(F)(F)F)cc1 [PP0158] ([NMeL]I[Aze][Sar][NPrPhe(4-CF3)][Sar][hPhe(3-Cl-4-CF3)]P[Ac5c][NMeGly(cPent)][NMeD]-Morpholide; lactam N-11)	15.4 nM	A (a compound having 10 or more and less than 20 is denoted as A)	B (a compound having 3 or more and less than 10 is denoted as B)	
CCO[C@@H]1C[C@H]2C(=O)NC3(CCC3)C(=O)N(C)[C@@H](C3CCCC3)C(=O)N(C)[C@H](C(=O)N(C)C)CC(=O)N(C)[C@@H](CC)C(=O)N[C@@H]([C@@H](C)CC)C(=O)N(C)CC(=O)N(C)[C@H]3CCCCCN(C3=O)[C@@H](Cc3ccc(F)c(C)c3)C(=O)N(C)CC(=O)N[C@@H](CCc3cc(F)c(C(F)(F)F)c(F)c3)C(=O)N2C1 [PP0912]	40.5 nM	B (a compound having 3 or more and less than 10 is denoted as B)	B (a compound having 3 or more and less than 10 is denoted as B)	
CCCN1C(=O)CN(C)C(=O)CN(CC)C(=O)[C@H]([C@@H](C)CC)NC(=O)[C@H](CC(C)C)N(C)C(=O)C[C@@H](C(=O)N2CCOCC2)N(C)C(=O)[C@H](C2CCCC2)N(C)C(=O)C2(CCCC2)NC(=O)[C@@H]2CCCCN2C(=O)[C@H](CCc2ccc(C(F)(F)F)c(Cl)c2)NC(=O)CN(C)C(=O)[C@@H]1Cc1ccc(C(F)(F)F)cc1 [PP0297] ([NMeL]I[NEtG][Sar][NPrPhe(4-CF3)][Sar][hPhe(3-Cl-4-CF3)][Pip][Ac5c][NMeGly(cPent)][NMeD]-Morpholide; lactam N-11)	74.3 nM	B (a compound having 3 or more and less than 10 is denoted as B)	C (A compound having a KD ratio of 0.1 or more and less than 3 is denoted as C)	
CCO[C@@H]1C[C@H]2C(=O)NC3(CCC3)C(=O)N(C)[C@@H](C3CCCC3)C(=O)N(C)[C@H](C(=O)N3CCOCC3)CC(=O)N(C)[C@@H](Cc3ccccc3)C(=O)N[C@@H]([C@@H](C)CC)C(=O)N(C)CC(=O)N(C)[C@H]3CCCCCN(C3=O)[C@@H](Cc3ccc(F)cc3)C(=O)N(C)CC(=O)N[C@@H](CCc3cc(F)c(C(F)(F)F)c(F)c3)C(=O)N2C1 [PP1181]	26.3 nM	B (a compound having 3 or more and less than 10 is denoted as B)	B (a compound having 3 or more and less than 10 is denoted as B)	
CCCN1C(=O)CN(C)C(=O)[C@@H]2CCN2C(=O)[C@H]([C@@H](C)CC)NC(=O)[C@H](CC(C)C)N(C)C(=O)C[C@@H](C(=O)N2CCOCC2)N(C)C(=O)[C@H](C2CCCC2)N(C)C(=O)[C@](C)(Cc2ccccc2)NC(=O)[C@@H]2CCCN2C(=O)[C@H](CCc2cc(F)c(C(F)(F)F)c(F)c2)NC(=O)CN(C)C(=O)[C@@H]1Cc1ccc(C(F)(F)F)cc1 [PP0778] ([NMeL]I[Aze][Sar][NPrPhe(4-CF3)][Sar][hPhe(3,5-F2-4-CF3)]P[αMeF][NMeGly(cPent)][NMeD]-Morpholide; lactam N-11)	546 nM			NRAS/KRAS (ratio of KD value with respect to NRAS to KD value with respect to KRAS) [1]: B (a compound having 3 or more and less than 10 is denoted as B); HRAS/KRAS (ratio of KD value with respect to HRAS to KD value with respect to KRAS) [3]: B (a compound having 3 or more and less than 10 is denoted as B)
CCCN1C(=O)[C@@H]2CCN2C(=O)[C@H]2N(CC2(C)C)C(=O)[C@H]([C@@H](C)CC)NC(=O)[C@H](CC(C)C)N(C)C(=O)C[C@@H](C(=O)N2CCOCC2)N(C)C(=O)[C@H](C2CCCC2)N(C)C(=O)C2(CCCC2)NC(=O)[C@@H]2CCCN2C(=O)[C@H](CCc2ccc(C(F)(F)F)c(Cl)c2)NC(=O)CN(C)C(=O)[C@@H]1Cc1ccc(C(F)(F)F)cc1 [PP0277] ([NMeL]I[X44][Aze][NPrPhe(4-CF3)][Sar][hPhe(3-Cl-4-CF3)]P[Ac5c][NMeGly(cPent)][NMeD]-Morpholide; lactam N-11)	6.7 nM	C (A compound having a KD ratio of 0.1 or more and less than 3 is denoted as C)	C (A compound having a KD ratio of 0.1 or more and less than 3 is denoted as C)	
